Measurements taken from US20250382301A1 (Arizona Board of Regents on Behalf of the University of …, priority 2022, published 2025).

The molecules below were run on WNT signaling (TopGFP reporter in Human Colonic Epithelial Cells (HCEC)) (assay: WNT Reporter Assay (TopGFP reporter)). Conditions: Homo sapiens, stimulated with 10 μM CHIR99021, 24 hours, TopGFP/mCherry.
Format: cell-based
Procedure: WNT Reporter Assay: Human Colonic Epithelial Cells (HCEC) were cultured using 1×DMEM supplemented with 1% penicillin/streptomycin, 1% Glutamax, and 10% fetal bovine serum in 5% CO2 at 37° C. These cells were previously engineered to express the TopGFP reporter (Addgene #24304) using second generation lentiviral techniques. For the Wnt reporter assay, cells were seeded at 2000 cells per well in a 384-well black screenstar imaging microplates (Greiner #781866) and allowed to adhere overnight. The following day cells were stimulated to induce the Wnt pathway using 10 μM CHIR99021 (Selleck #S1263). […] Cells were incubated for 24 hours before fixing for 30 minutes with 4% paraformaldehyde/sucrose solution. Cells were permeabilized with 0.1% triton-x in PBS for 10 minutes and stained for DAPI for 30 minutes. Plates were imaged on a Nikon Ti2 Eclipse fluorescent microscope for DAPI, GFP, and mCherry. Using Nikon Elements software for analysis, nuclei were segmented based on DAPI and mean object intensity per cell for both TopGFP and the internal control (mCherry) was measured. To calculate the amount of Wnt activity, we took the mean intensity of TopGFP and divided it by the mean intensity of mCherry per cell to normalize individual cells. Curves and EC50s were plotted and calculated using Graphpad Prism software.

Molecule	EC50
Nc1cc(-c2ccc3ncnc(N4CCCN(Cc5ccc(F)cc5)CC4)c3c2)ccn1 [Compound 41, 4-(4-(4-(4-fluorobenzyl)-1,4-diazepan-1-yl)quinazolin-6-yl)pyridin-2-amine]	100 to 1000 nM
COc1cc2c(cc1OC)CN(c1ncnc3ccc(-c4cnn(C)c4)cc13)CC2 [Compound 47, 4-(6,7-dimethoxy-3,4-dihydroisoquinolin-2(1H)-yl)-6-(1-methyl-1H-pyrazol-4-yl)quinazoline]	> 1000 nM
Nc1cc(-c2ccc3ncnc(N4CCN(c5cccnc5)CC4)c3c2)ccn1 [Compound 37, 4-(4-(4-(pyridin-3-yl)piperazin-1-yl)quinazolin-6-yl)pyridin-2-amine]	< 100 nM
Cc1cc(-c2ccc3ncnc(N4CCN(c5ccccn5)CC4)c3c2)ccn1 [Compound 12, 6-(2-methylpyridin-4-yl)-4-(4-(pyridin-2-yl)piperazin-1-yl)quinazoline]	> 1000 nM
Nc1cc(-c2ccc3ncnc(N4CCN(c5ccc(F)cc5F)CC4)c3c2)ccn1 [Compound 39, 4-(4-(4-(2,4-difluorophenyl)piperazin-1-yl)quinazolin-6-yl)pyridin-2-amine]	100 to 1000 nM
Nc1cc(-c2ccc3nccc(N4CCN(c5ccccc5)CC4)c3n2)ccn1 [Compound 53, 4-(8-(4-phenylpiperazin-1-yl)-1,5-naphthyridin-2-yl)pyridin-2-amine]	< 100 nM
Nc1cc(-c2ccc3ncnc(N4CCN(C5COC5)CC4)c3c2)ccn1 [Compound 11, 4-(4-(4-(oxetan-3-yl)piperazin-1-yl)quinazolin-6-yl)pyridin-2-amine]	> 1000 nM
O=C1CN(c2ncnc3ccc(-c4cn[nH]c4)cc23)CCN1c1ccccc1 [Compound 32, 4-(6-(1H-pyrazol-4-yl)quinazolin-4-yl)-1-phenylpiperazin-2-one]	< 100 nM
Nc1cc(-c2ccc3ncnc(N4CCC(c5ccccc5F)CC4)c3c2)ccn1 [Compound 48, 4-(4-(4-(2-fluorophenyl)piperidin-1-yl)quinazolin-6-yl)pyridin-2-amine]	100 to 1000 nM
Nc1cc(-c2ccc3ncnc(N4CCN(c5ccncn5)CC4)c3c2)ccn1 [Compound 9, 4-(4-(4-(pyrimidin-4-yl)piperazin-1-yl)quinazolin-6-yl)pyridin-2-amine]	100 to 1000 nM
Nc1cc(-c2ccc3ncnc(N4CCC(c5ccccc5)CC4)c3c2)ccn1 [Compound 51, 4-(4-(4-phenylpiperidin-1-yl)quinazolin-6-yl)pyridin-2-amine]	100 to 1000 nM
Nc1cc(-c2ccc3ncnc(N4CCN(Cc5ccc(F)cc5)CC4)c3c2)ccn1 [Compound 43, 4-(4-(4-(4-fluorobenzyl)piperazin-1-yl)quinazolin-6-yl)pyridin-2-amine]	100 to 1000 nM
Nc1cc(-c2ccc3ncnc(N4CCN(c5ccccn5)CC4)c3n2)ccn1 [Compound 5, 4-(4-(4-(pyridin-2-yl)piperazin-1-yl)pyrido[3,2-d]pyrimidin-6-yl)pyridin-2-amine]	< 100 nM
C[C@H]1CN(c2ccccn2)CCN1c1ncnc2ccc(-c3ccnc(N)c3)cc12 [Compound 45, (S)-4-(4-(2-methyl-4-(pyridin-2-yl)piperazin-1-yl)quinazolin-6-yl)pyridin-2-amine]	< 100 nM
Nc1cc(-c2ccc3ncnc(N4CCN(c5ccccc5F)CC4)c3n2)ccn1 [Compound 19, 4-(4-(4-(2-fluorophenyl)piperazin-1-yl)pyrido[3,2-d]pyrimidin-6-yl)pyridin-2-amine]	< 100 nM
O=c1ccccn1C1CCN(c2ncnc3ccc(-c4cn[nH]c4)cc23)CC1 [Compound 59, 1-(1-(6-(1H-pyrazol-4-yl)quinazolin-4-yl)piperidin-4-yl)pyridin-2(1H)-one]	< 100 nM
Fc1ccccc1N1CCN(c2ncnc3ccc(-c4cnoc4)nc23)CC1 [Compound 40, 4-(4-(4-(2-fluorophenyl)piperazin-1-yl)pyrido[3,2-d]pyrimidin-6-yl)isoxazole]	100 to 1000 nM
C[C@@H]1CN(c2ccccn2)CCN1c1ncnc2ccc(-c3ccnc(N)c3)cc12 [Compound 44, (R)-4-(4-(2-methyl-4-(pyridin-2-yl)piperazin-1-yl)quinazolin-6-yl)pyridin-2-amine]	100 to 1000 nM
Fc1ccc(CN2CCCN(c3ncnc4ccc(-c5cn[nH]c5)cc34)CC2)cc1 [Compound 36, 4-(4-(4-fluorobenzyl)-1,4-diazepan-1-yl)-6-(1H-pyrazol-4-yl)quinazoline]	< 100 nM
Nc1cc(-c2ccc3ncnc(N4CCN(c5ccncc5)CC4)c3c2)ccn1 [Compound 6, 4-(4-(4-(pyridin-4-yl)piperazin-1-yl)quinazolin-6-yl)pyridin-2-amine]	100 to 1000 nM

Molecule	EC50
Nc1cc(-c2ccc3ncnc(N4CCN(c5ccc(C(F)(F)F)cn5)CC4)c3n2)ccn1 [Compound 16, 4-(4-(4-(5-(trifluoromethyl)pyridin-2-yl)piperazin-1-yl)pyrido[3,2-d]pyrimidin-6-yl)pyridin-2-amine]	< 100 nM
c1ccc(N2CCN(c3ncnc4ccc(-c5c[nH]c6ncccc56)cc34)CC2)nc1 [Compound 17, 4-(4-(pyridin-2-yl)piperazin-1-yl)-6-(1H-pyrrolo[2,3-b]pyridin-3-yl)quinazoline]	< 100 nM
Nc1cc(-c2ccc3ncnc(N4CCN(c5ncccn5)CC4)c3c2)ccn1 [Compound 10, 4-(4-(4-(pyrimidin-2-yl)piperazin-1-yl)quinazolin-6-yl)pyridin-2-amine]	100 to 1000 nM
Nc1cc(-c2ccc3ncnc(N4CCN(c5ccccc5)C(=O)C4)c3c2)ccn1 [Compound 38, 4-(6-(2-aminopyridin-4-yl)quinazolin-4-yl)-1-phenylpiperazin-2-one]	100 to 1000 nM
Nc1cc(-c2ccc3ncnc(N4CCN(c5ccccc5)CC4)c3n2)ccn1 [Compound 4, 4-(4-(4-phenylpiperazin-1-yl)pyrido[3,2-d]pyrimidin-6-yl)pyridin-2-amine]	< 100 nM
Cn1cc(-c2ccc3ncnc(N4CCN(Cc5ccc(F)cc5)CC4)c3c2)cn1 [Compound 42, 4-(4-(4-fluorobenzyl)piperazin-1-yl)-6-(1-methyl-1H-pyrazol-4-yl)quinazoline]	> 1000 nM
FC(F)c1cc(-c2ccc3ncnc(N4CCN(c5ccccn5)CC4)c3c2)ccn1 [Compound 8, 6-(2-(difluoromethyl)pyridin-4-yl)-4-(4-(pyridin-2-yl)piperazin-1-yl)quinazoline]	100 to 1000 nM
Nc1cc(-c2ccc3ncnc(N4CCN(c5ncccc5F)CC4)c3c2)ccn1 [Compound 61, 4-(4-(4-(3-fluoropyridin-2-yl)piperazin-1-yl)quinazolin-6-yl)pyridin-2-amine]	< 100 nM
Nc1cc(-c2ccc3ncnc(N4CCC5(CCN(c6ccccn6)CC5)C4)c3c2)ccn1 [Compound 64, 4-(4-(8-(pyridin-2-yl)-2,8-diazaspiro[4.5]decan-2-yl)quinazolin-6-yl)pyridin-2-amine]	100 to 1000 nM
Cc1ccc(N2CCN(c3ccnc4ccc(-c5ccnc(N)c5)cc34)CC2)c(C)c1 [Compound 34, 4-(4-(4-(2,4-dimethylphenyl)piperazin-1-yl)quinolin-6-yl)pyridin-2-amine]	100 to 1000 nM
O=c1ccccn1C1CCN(c2ncnc3ccc(-c4c[nH]c5ncccc45)cc23)CC1 [Compound 58, 1-(1-(6-(1H-pyrrolo[2,3-b]pyridin-3-yl)quinazolin-4-yl)piperidin-4-yl)pyridin-2(1H)-one]	< 100 nM
Nc1cc(-c2ccc3ncnc(N4C[C@H]5C[C@@H]4CN5c4ccccn4)c3c2)ccn1 [Compound 55, 4-(4-((1R,4R)-5-(pyridin-2-yl)-2,5-diazabicyclo[2.2.1]heptan-2-yl)quinazolin-6-yl)pyridin-2-amine]	> 1000 nM
COc1cc2c(cc1OC)CN(c1ncnc3ccc(-c4ccnc(N)c4)cc13)CC2 [Compound 35, 4-(4-(6,7-dimethoxy-3,4-dihydroisoquinolin-2(1H)-yl)quinazolin-6-yl)pyridin-2-amine]	100 to 1000 nM
c1ccc(N2CCN(c3ncnc4ccc(-c5cn[nH]c5)cc34)CC2)nc1 [Compound 14, 6-(1H-pyrazol-4-yl)-4-(4-(pyridin-2-yl)piperazin-1-yl)quinazoline]	< 100 nM
Nc1cc(-c2ccc3ncnc(N4CCN(c5nccs5)CC4)c3c2)ccn1 [Compound 50, 4-(4-(4-(thiazol-2-yl)piperazin-1-yl)quinazolin-6-yl)pyridin-2-amine]	< 100 nM
Nc1cc(-c2ccc3nccc(N4CCN(c5ccccn5)CC4)c3c2)ccn1 [Compound 29]	< 100 nM
Nc1cc(-c2ccc3ncnc(N4CCN(C(=O)c5ccccc5F)CC4)c3c2)ccn1 [Compound 46, (4-(6-(2-aminopyridin-4-yl)quinazolin-4-yl)piperazin-1-yl)(2-fluorophenyl)methanone]	> 1000 nM
Nc1cc(-c2ccc3ncnc(N4CCN(c5ccc(F)cc5)CC4)c3c2)ccn1 [Compound 31, 4-(4-(4-(4-fluorophenyl)piperazin-1-yl)quinazolin-6-yl)pyridin-2-amine]	100 to 1000 nM
Nc1cc(-c2ccc3ncnc(N4CCN(c5ccccc5F)C(=O)C4)c3n2)ccn1 [Compound 67, 4-(6-(2-aminopyridin-4-yl)pyrido[3,2-d]pyrimidin-4-yl)-1-(2-fluorophenyl)piperazin-2-one]	< 100 nM
Nc1cc(-c2ccc3nccc(N4CCN(c5ccc(F)cc5)CC4)c3c2)ccn1 [Compound 30, 4-(4-(4-(4-fluorophenyl)piperazin-1-yl)quinolin-6-yl)pyridin-2-amine]	< 100 nM

Same assay, conditions: stimulated with 10 μM CHIR99021, 24 hours, TopGFP/mCherry

Molecule	EC50
4-(4-(2-fluorophenyl)piperazin-1-yl)-6-(1H-pyrazol-3-yl)pyrido[3,2-d]pyrimidine [Compound 23]	< 100 nM
6-(1-methyl-1H-pyrazol-3-yl)-4-(4-(5-(trifluoromethyl)pyridin-2-yl)piperazin-1-yl)pyrido[3,2-d]pyrimidine [Compound 21]	> 1000 nM
4-(4-(2-fluorophenyl)piperazin-1-yl)-6-(1-methyl-1H-pyrazol-3-yl)pyrido[3,2-d]pyrimidine [Compound 20]	> 1000 nM
6-(1H-pyrazol-3-yl)-4-(4-(5-(trifluoromethyl)pyridin-2-yl)piperazin-1-yl)pyrido[3,2-d]pyrimidine [Compound 22]	< 100 nM
